Results taken from PubChem BioAssay (NCI).
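Exposure lasted 48 hours, with cells grown in 96-well plates and compounds tested at five concentrations. The concentration for full growth arrest is given as TGI.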

Experiments:
Assay in all cases: NCI anticancer screen, dose series, 48 h
K-562 leukemia = system: K-562 leukemia
SN12C renal = system: SN12C renal
NCI-H226 lung = system: NCI-H226 lung
HOP-62 NSCLC = system: HOP-62 NSCLC
PC-3 prostate = system: PC-3 prostate
CAKI-1 renal = system: CAKI-1 renal
ACHN renal = system: ACHN renal
MDA-MB-231 breast = system: MDA-MB-231 breast
HCC-2998 colon = system: HCC-2998 colon
NCI/ADR-RES ovarian = system: NCI/ADR-RES ovarian
OVCAR-5 ovarian = system: OVCAR-5 ovarian
SNB-75 CNS = system: SNB-75 CNS
T-47D breast = system: T-47D breast
SK-MEL-28 melanoma = system: SK-MEL-28 melanoma
786-0 renal = system: 786-0 renal
DU-145 prostate = system: DU-145 prostate
SF-295 CNS = system: SF-295 CNS
A549 NSCLC = system: A549 NSCLC
OVCAR-8 ovarian = system: OVCAR-8 ovarian
COLO 205 colon = system: COLO 205 colon

SMILES	TGI (K-562 leukemia) [µM]	TGI (SN12C renal) [µM]	TGI (NCI-H226 lung) [µM]	TGI (HOP-62 NSCLC) [µM]	TGI (PC-3 prostate) [µM]	TGI (CAKI-1 renal) [µM]	TGI (ACHN renal) [µM]	TGI (MDA-MB-231 breast) [µM]	TGI (HCC-2998 colon) [µM]	TGI (NCI/ADR-RES ovarian) [µM]	TGI (OVCAR-5 ovarian) [µM]	TGI (SNB-75 CNS) [µM]	TGI (T-47D breast) [µM]	TGI (SK-MEL-28 melanoma) [µM]	TGI (786-0 renal) [µM]	TGI (DU-145 prostate) [µM]	TGI (SF-295 CNS) [µM]	TGI (A549 NSCLC) [µM]	TGI (OVCAR-8 ovarian) [µM]	TGI (COLO 205 colon) [µM]
CCOC(=O)c1ccc(OCc2nc3cc(C(F)(F)F)ccc3nc2-c2ccccc2)cc1	> 100	> 100	> 100	> 100	> 100	> 100	> 100	> 100	> 100	> 100	> 100	> 100	> 100	> 100	> 100	> 100	> 100	> 100	> 100	> 100
CC(=O)O[C@H]1C[C@H]2[C@@H]([C@H](OC(C)=O)C[C@@H]3CC4(CC[C@@]32C)OOC2(CCCCC2)OO4)[C@@H]2CC[C@H]([C@H](C)CCC(N)=O)[C@@]12C	6.02	5.5	6.8	2.11	4.15	2.14	3.12	4.22	7.41	4.95	6.65	4.89	3.84	24.7	3.52	3.52	9.66	2.93	9.87	3.68
Cc1cc(C)c(-n2c(C)c(C)c(C#N)c2N)c(C)c1	78.5	> 100	> 100	> 100	89	> 100	78.9	> 100		> 100	> 100	> 100	> 100	> 100	> 100	> 100	> 100	> 100	> 100	38.9
Cc1ccc(N/N=C/C2=CC(C)(C)C(C#N)(C#N)C(O)=C2C#N)cc1	> 100	> 100	> 100	> 100	58.7	69.5	> 100	> 100	> 100	> 100	> 100	> 100	> 100	> 100	> 100	> 100	> 100	> 100	> 100	> 100
COc1cc(/C=C2/CCCc3ccccc3C2=O)cc(OC)c1OC	> 23.8	> 51.4	> 79.8	> 58.9	> 59.3	> 59.5	> 100	> 51.4	> 74	> 100	> 100	> 49.9	> 100	> 100	> 62	> 58.3	> 57.6	> 100	> 69.8	> 60.8
CC(=O)NC1C(O)C(O)C(CO)OC1n1nc(SCc2ccccc2)c(=O)[nH]c1=O (stereo not drawn)	> 100	> 100	> 100	> 100	> 100	> 100	> 100	> 100	> 100	> 100	> 100	> 100	> 100	> 100	> 100	> 100	> 100	> 100	> 100	> 100
C=C1CC(COc2ccc3c(C)c(Cl)c(=O)oc3c2)(c2ccccc2)OC1=O (stereo not drawn)		20.1	8.01	20.3	5.49	3.12	6.04	14.4	3.59	11.4	25.9	11.7	4.15	6.43	2.95	9.66	22.7	27.9	5.61	1.83
Cn1c(=O)c2c(nc(N3CCOCC3)n2CCCNCC(O)c2ccc(O)c(O)c2)n(C)c1=O (stereo not drawn)	> 100	> 100	> 100	> 100	> 100	> 100	> 100	> 100		> 100	> 100	> 100	> 100	> 100	> 100	> 100	> 100	> 100	> 100	> 100
Cc1c2ccccc2c(CSC(=N)N)c2ccccc12	1.4	0.903	0.679	1.99	0.829		0.303	1.03		0.924	1.13	0.445	5.32	0.809	0.745	0.406	2.29	1.62	6.43	0.37
Cc1cc2nn(C3CCCCO3)nc2cc1C (stereo not drawn)	> 100	> 100	> 100	> 100	> 100	> 100	> 100	> 100	> 100	> 100	> 100	> 100	> 100		> 100	> 100	> 100	> 100	> 100	> 100
O=S(=O)(Nc1nc2ccccc2nc1Nc1cccc2ccccc12)c1ccccc1	> 100	> 100	> 100	33	> 100	> 100	> 100	43.9	> 100	> 100	> 100	57.6	> 100	> 100	68.4	> 100	> 100	> 100	> 100	
COc1ccc2c(c1)OCC1=C2Oc2ccccc2C1	> 100	> 100	> 100	> 100	> 100	> 100	> 100	> 100	54	> 100	88.8	42.5	> 100		> 100	> 100	> 100	> 100	> 100	49.2
COC(=O)c1c(O)ccc2c1c1cc3ccccc3c(O)c1n2Cc1ccccc1Cl	> 100	> 100	> 100	59.3	> 100	61.9	95.7	> 100	47.7	64.3	> 100		60.7	46.4	54.1	> 100	40.3	> 100	> 100	30.4
O=C1CC2(CCN(CC3COc4ccccc4O3)CC2)C(=O)N1N1CCCCCC1 (stereo not drawn)	> 100	> 100	> 100	> 100	> 100	> 100	> 100	> 100		> 100	> 100	> 100	> 100	> 100	> 100	> 100	> 100	> 100	> 100	> 100
CC(=O)Oc1c(C)cc2c(c1C)C(C)(C)CN2C(=O)C(C)(C)C	> 100	> 100	> 100	> 100	> 100		> 100	> 100	> 100	> 100	> 100	31	96.2	> 100	> 100	> 100	> 100	> 100	> 100	> 100
O=c1oc2cc(O)ccc2c(O)c1C(c1ccc2ccccc2c1)c1c(O)c2ccc(O)cc2oc1=O	> 100	> 100	> 100	> 100	> 100	> 100		> 100	> 100	> 100	> 100	37.7	> 100	> 100	> 100	> 100	> 100	> 100	> 100	> 100
CC(C)C(C)C(O)C(O)C(C)C1CCC2C3COC(=O)C4CC(O)C(O)CC4(C)C3CCC12C (stereo not drawn)	> 100	> 100	> 100		> 100	26.3	> 100	> 100	> 100	> 100	> 100		> 100	> 100	> 100	> 100	> 100	> 100	> 100	> 100
CC1(C)[C@H]2CC[C@](C)(C2)[C@]1(S)Cc1ccccn1	> 100	> 100		> 100	67.6	> 100	> 100	> 100	41.5	> 100	> 100	77.1	73.1	> 100	> 100	> 100	98.8	> 100	42.6	> 100
COc1ccc(OC)c2sc(N3C(=O)/C(=C/c4ccc(SC)cc4)N=C3c3ccccc3)nc12	> 100	70.2		40	50.6	> 100	86.6	> 100	> 100	89.9	> 100	43.6	87	> 100	> 100	> 100	> 100	53.9	92.6	> 100
COc1cccc([C@@H]2C/C(=N\NC(=O)C(=O)N[C@@H](C)c3ccccc3)c3cc4c(cc3N2)OCO4)c1	> 100	> 100	> 100	> 100	> 100	> 100	> 100	> 100	> 100	> 100	> 100	> 100	> 100	> 100	> 100	> 100	> 100	> 100		68.8
CC(=O)OC(=C(C#N)C#N)c1nccnc1C(=O)O	> 100	> 100	> 100		> 100	> 100	> 100	> 100	> 100	> 100	> 100	> 100	> 100	> 100	> 100	> 100	> 100	> 100	> 100	> 100
CCC(C#N)NCc1ccc(CNC(C#N)CC)cc1 (stereo not drawn)	> 100	> 100	> 100		> 100	> 100	> 100	> 100	> 100	> 100	> 100		> 100	> 100	> 100	> 100	> 100	> 100	> 100	> 100
CCCCCCCCCCCCCCCCOP(=O)(O)OP(=O)(O)OCC1OC(n2cnc3c(N)ncnc32)C(O)C1O (stereo not drawn)	> 100	> 100	> 100	> 100	> 100	> 100	> 100	> 100	> 100	> 100	47.4	61.8	> 100	64	> 100	> 100		> 100	> 100	> 100
O=C1CCN=C(NC(=O)C(F)(F)F)N1CCc1c[nH]c2ccccc12	> 100	> 100	> 100	> 100	> 100	> 100	> 100	> 100	> 100	> 100	> 100		> 100	> 100	> 100	> 100	> 100	> 100	> 100	> 100
